Experimental data as given in patent US10947271B2, “Antibacterial agents” (THE UNIVERSITY OF QUEENSLAND, priority 2014, dated 2021).

Experiments:
Assay type in all cases: cell-based
Settings in all cases: 24 h incubation, visual reading
[1] = test system: Staphylococcus aureus MRSA ATCC 43300; assay: MIC assay, S. aureus MRSA ATCC 43300
Description: (§1) Antimicrobial activity of compounds was tested against a number of bacterial strains, including Staphylococcus aureus (MRSA ATCC 43300, GISA NRS17, VISA NRS1, MRSA clinical isolate, daptomycin resistant clinical isolate), Streptococcus pneumoniae (MDR ATCC 700677), Enterococcus faecalis (VanA clinical isolate) and Enterococcus faecium (MDR Van A ATCC 51559).
(§2) All compounds were prepared to 160 μg/ml solution in water from a stock solution of 1 mM concentration.
(§3) The compounds, along with standard antibiotics were serially diluted twofold across the wells of 96-well non-binding surface plates (NBS, Corning). Standards ranged from 64 μg/ml to 0.03 μg/ml and compounds from 8 μg/ml to 0.003 μg/ml with final volumes of 50 μL per well. Gram positive bacteria were cultured in Muller Hinton broth (MHB) (Bacto laboratories, Cat. no. 211443) at 37° C. overnight. A sample of each culture was then diluted 40-fold in fresh MHB broth and incubated at 37° C. for 2-3 hrs. The resultant mid-log phase cultures were diluted to the final concentration of 5×10e5 CFU/mL, then 50 μL was added to each well of the compound-containing 96-well plates. All the plates were covered and incubated at 37° C. for 24 h. MICs were the lowest concentration showing no visible growth.
(§4) MICs were determined visually at 24 hr incubation and the MIC was defined as the lowest concentration with which no growth was visible after incubation. Both MIC and MBC were determined by visual inspection only.

[2] = test system: Streptococcus pneumoniae MDR ATCC 700677; assay: MIC assay, S. pneumoniae MDR ATCC 700677
Description: as §1, §2, §3, §4

[3] = test system: Enterococcus faecium MDR Van A ATCC 51559; assay: MIC assay, E. faecium MDR Van A ATCC 51559
Description: as §1, §2, §3, §4

Row | Compound | Minimum Inhibitory Concentration (MIC) Staph. aureus ATCC43300 [1] | Minimum Inhibitory Concentration (MIC) S. pneumoniae ATCC 700677 [2] | Minimum Inhibitory Concentration (MIC) E. faecium ATCC51559 [3]
1 | CNC(=O)[C@H](CCCCNC(=O)[C@H]1NC(=O)[C@H]2NC(=O)[C@H](NC(=O)[C@@H]3NC(=O)[C@H](CC(N)=O)NC(=O)[C@H](NC(=O)[C@@H](CC(C)C)NC)[C@H](O)c4ccc(c(Cl)c4)Oc4cc3cc(c4O[C@@H]3O[C@H](CO)[C@@H](O)[C@H](O)[C@H]3O[C@H]3C[C@](C)(N)[C@H](O)[C@H](C)O3)Oc3ccc(cc3Cl)[C@H]2O)c2ccc(O)c(c2)-c2c(O)cc(O)cc21)NC(=O)[C@H](CCCCN)NC(=O)[C@H](CCCCN)NC(=O)CNC(=O)c1ccc(Oc2ccccc2)cc1 [MCC_000647] | xxx (xxx = 0.1-<1) | xxx (xxx = 0.1-<1) | x (x = >4)
2 | CCCCC=CCCCCCCCC(=O)NC(CCCCN)C(=O)NC(CCCCN)C(=O)NC(CCCCNC(=O)C1NC(=O)C2NC(=O)C(NC(=O)C3NC(=O)C(CC(N)=O)NC(=O)C(NC(=O)C(CC(C)C)NC)C(O)c4ccc(c(Cl)c4)Oc4cc3cc(c4OC3OC(CO)C(O)C(O)C3OC3CC(C)(N)C(O)C(C)O3)Oc3ccc(cc3Cl)C2O)c2ccc(O)c(c2)-c2c(O)cc(O)cc21)C(=O)NC (stereo not drawn) [MCC_000498] | xx (xx = 1-4) | xx (xx = 1-4) | x (x = >4)
3 | CCCCCCCCCCC(=O)N[C@@H](CCCCN)C(=O)N[C@@H](CCCCN)C(=O)N[C@@H](CCCCNC(=O)CNC(=O)[C@H]1NC(=O)[C@H]2NC(=O)[C@H](NC(=O)[C@@H]3NC(=O)[C@H](CC(N)=O)NC(=O)[C@H](NC(=O)[C@@H](CC(C)C)NC)[C@H](O)c4ccc(c(Cl)c4)Oc4cc3cc(c4O[C@@H]3O[C@H](CO)[C@@H](O)[C@H](O)[C@H]3O[C@H]3C[C@](C)(N)[C@H](O)[C@H](C)O3)Oc3ccc(cc3Cl)[C@H]2O)c2ccc(O)c(c2)-c2c(O)cc(O)cc21)C(=O)O [MCC_000225] | xxx (xxx = 0.1-<1) | xxx (xxx = 0.1-<1) | x (x = >4)
4 | CCCCCOc1ccc(C(=O)NCCCCC(NC(=O)c2ccc(OCCCCC)cc2)C(=O)NC(CCCCN)C(=O)NC(CCCCNC(=O)C2NC(=O)C3NC(=O)C(NC(=O)C4NC(=O)C(CC(N)=O)NC(=O)C(NC(=O)C(CC(C)C)NC)C(O)c5ccc(c(Cl)c5)Oc5cc4cc(c5OC4OC(CO)C(O)C(O)C4OC4CC(C)(N)C(O)C(C)O4)Oc4ccc(cc4Cl)C3O)c3ccc(O)c(c3)-c3c(O)cc(O)cc32)C(=O)NC)cc1 (stereo not drawn) [MCC_000502] | xxxxx (xxxxx = <0.01) | xxxxx (xxxxx = <0.01) | xxx (xxx = 0.1-<1)
5 | CCCCCCCCCC(=O)N[C@@H](CCCCN(CC)CC)C(=O)N[C@@H](CCCCNC(=O)[C@H]1NC(=O)[C@H]2NC(=O)[C@H](NC(=O)[C@@H]3NC(=O)[C@H](CC(N)=O)NC(=O)[C@H](NC(=O)[C@@H](CC(C)C)NC)[C@H](O)c4ccc(c(Cl)c4)Oc4cc3cc(c4O[C@@H]3O[C@H](CO)[C@@H](O)[C@H](O)[C@H]3O[C@H]3C[C@](C)(N)[C@H](O)[C@H](C)O3)Oc3ccc(cc3Cl)[C@H]2O)c2ccc(O)c(c2)-c2c(O)cc(O)cc21)C(=O)O [MCC_007330] | xxx (xxx = 0.1-<1) | xxx (xxx = 0.1-<1) | x (x = >4)
6 | CCCCCCCCC(=O)NC(CCCCN)C(=O)NC(CCCCN)C(=O)NC(CCCCNC(=O)C1NC(=O)C2NC(=O)C(NC(=O)C3NC(=O)C(CC(N)=O)NC(=O)C(NC(=O)C(CC(C)C)NC)C(O)c4ccc(c(Cl)c4)Oc4cc3cc(c4OC3OC(CO)C(O)C(O)C3OC3CC(C)(N)C(O)C(C)O3)Oc3ccc(cc3Cl)C2O)c2ccc(O)c(c2)-c2c(O)cc(O)cc21)C(=O)NC (stereo not drawn) [MCC_000491] | xxx (xxx = 0.1-<1) | xxx (xxx = 0.1-<1) | x (x = >4)

Further lines, results first:

Row | Minimum Inhibitory Concentration (MIC) Staph. aureus ATCC43300 [1] | Minimum Inhibitory Concentration (MIC) S. pneumoniae ATCC 700677 [2] | Minimum Inhibitory Concentration (MIC) E. faecium ATCC51559 [3] | Compound
7 | xxxxx (xxxxx = <0.01) | xxxxx (xxxxx = <0.01) | xxx (xxx = 0.1-<1) | CCCCCCCCCCCC(=O)N[C@@H](CCCCN)C(=O)N[C@@H](CCCCN)C(=O)N[C@@H](CCCCN)C(=O)N[C@@H](CCCCNC(=O)[C@H]1NC(=O)[C@H]2NC(=O)[C@H](NC(=O)[C@@H]3NC(=O)[C@H](CC(N)=O)NC(=O)[C@H](NC(=O)[C@@H](CC(C)C)NC)[C@H](O)c4ccc(c(Cl)c4)Oc4cc3cc(c4O[C@@H]3O[C@H](CO)[C@@H](O)[C@H](O)[C@H]3O[C@H]3C[C@](C)(N)[C@H](O)[C@H](C)O3)Oc3ccc(cc3Cl)[C@H]2O)c2ccc(O)c(c2)-c2c(O)cc(O)cc21)C(=O)O [MCC_000348]
8 | xxxxx (xxxxx = <0.01) | xxxxx (xxxxx = <0.01) | xxx (xxx = 0.1-<1) | CCCCCCCCCCCCC(=O)N[C@@H](CCCCN)C(=O)N[C@@H](CCCCN)C(=O)N[C@@H](CCCCN)C(=O)N[C@@H](CCCCNC(=O)[C@H]1NC(=O)[C@H]2NC(=O)[C@H](NC(=O)[C@@H]3NC(=O)[C@H](CC(N)=O)NC(=O)[C@H](NC(=O)[C@@H](CC(C)C)NC)[C@H](O)c4ccc(c(Cl)c4)Oc4cc3cc(c4O[C@@H]3O[C@H](CO)[C@@H](O)[C@H](O)[C@H]3O[C@H]3C[C@](C)(N)[C@H](O)[C@H](C)O3)Oc3ccc(cc3Cl)[C@H]2O)c2ccc(O)c(c2)-c2c(O)cc(O)cc21)C(=O)O [MCC_000350]
9 | xxxxx (xxxxx = <0.01) | xxxxx (xxxxx = <0.01) | xx (xx = 1-4) | CCCCCCCc1ccc(C(=O)NC(CCCCN)C(=O)NC(CCCCN)C(=O)NC(CCCCNC(=O)C2NC(=O)C3NC(=O)C(NC(=O)C4NC(=O)C(CC(N)=O)NC(=O)C(NC(=O)C(CC(C)C)NC)C(O)c5ccc(c(Cl)c5)Oc5cc4cc(c5OC4OC(CO)C(O)C(O)C4OC4CC(C)(N)C(O)C(C)O4)Oc4ccc(cc4Cl)C3O)c3ccc(O)c(c3)-c3c(O)cc(O)cc32)C(=O)NC)cc1 (stereo not drawn) [MCC_000500]
10 | xxxxx (xxxxx = <0.01) | xxxx (xxxx = 0.01-<0.1) | xx (xx = 1-4) | CCCCCCCCCC(=O)NC(CCCCN)C(=O)NC(CCCNC(=N)N)C(=O)NCCCNC(=O)C1NC(=O)C2NC(=O)C(NC(=O)C3NC(=O)C(CC(N)=O)NC(=O)C(NC(=O)C(CC(C)C)NC)C(O)c4ccc(c(Cl)c4)Oc4cc3cc(c4OC3OC(CO)C(O)C(O)C3OC3CC(C)(N)C(O)C(C)O3)Oc3ccc(cc3Cl)C2O)c2ccc(O)c(c2)-c2c(O)cc(O)cc21 (stereo not drawn) [MCC_005486]
11 | xxxxx (xxxxx = <0.01) | xxxxx (xxxxx = <0.01) | xxxx (xxxx = 0.01-<0.1) | CCCCCCCCCCCCCC(=O)N[C@@H](CCCN)C(=O)N[C@@H](CCCN)C(=O)NCC(=O)NCCNC(=O)[C@H]1NC(=O)[C@H]2NC(=O)[C@H](NC(=O)[C@@H]3NC(=O)[C@H](CC(N)=O)NC(=O)[C@H](NC(=O)[C@@H](CC(C)C)NC)[C@H](O)c4ccc(c(Cl)c4)Oc4cc3cc(c4O[C@@H]3O[C@H](CO)[C@@H](O)[C@H](O)[C@H]3O[C@H]3C[C@](C)(N)[C@H](O)[C@H](C)O3)Oc3ccc(cc3Cl)[C@H]2O)c2ccc(O)c(c2)-c2c(O)cc(O)cc21 [MCC_000228]
